In paper PMC8574098 (Journal of natural products, 2021) one finds IC50 data, which are given here for 1 substance.

A word on the IC50: it is the concentration needed to halve the response being measured. The low end stands for greater potency in that assay, the high end for weaker potency in that assay.

This assay deals with matrix metalloproteinase-3 (MMP-3) (Homo sapiens, UniProt P08254). Briefly: MMP-3 enzyme inhibition assay. Type of assay: biochemical.
matrix metalloproteinase-3 (MMP-3), sequence (P08254 100-477): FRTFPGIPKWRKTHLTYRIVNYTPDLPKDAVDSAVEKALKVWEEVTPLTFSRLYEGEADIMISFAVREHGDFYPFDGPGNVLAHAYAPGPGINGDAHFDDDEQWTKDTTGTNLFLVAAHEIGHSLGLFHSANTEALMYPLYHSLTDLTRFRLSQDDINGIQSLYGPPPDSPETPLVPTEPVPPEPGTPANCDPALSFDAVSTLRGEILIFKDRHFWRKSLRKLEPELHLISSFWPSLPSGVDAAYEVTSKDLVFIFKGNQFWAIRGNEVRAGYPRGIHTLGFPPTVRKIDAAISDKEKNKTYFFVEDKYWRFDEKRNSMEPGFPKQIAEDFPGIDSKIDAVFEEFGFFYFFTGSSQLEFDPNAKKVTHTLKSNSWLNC

On to berkeleypenostatin E [compound 5], for which the IC50 amounted to 50 µM.
